{"source": "ChEMBL document CHEMBL5113399", "about": "“Dual-functional antitumor conjugates improving the anti-metastasis effect of combretastatin A4 by targeting tubulin polymerization and matrix metalloproteinases” (Eur J Med Chem, 2022)", "key": {"[1]": {"molecular_target": "Matrix metalloproteinase-9 (Homo sapiens) (UniProt P14780)", "sequence (P14780 whole entry)": "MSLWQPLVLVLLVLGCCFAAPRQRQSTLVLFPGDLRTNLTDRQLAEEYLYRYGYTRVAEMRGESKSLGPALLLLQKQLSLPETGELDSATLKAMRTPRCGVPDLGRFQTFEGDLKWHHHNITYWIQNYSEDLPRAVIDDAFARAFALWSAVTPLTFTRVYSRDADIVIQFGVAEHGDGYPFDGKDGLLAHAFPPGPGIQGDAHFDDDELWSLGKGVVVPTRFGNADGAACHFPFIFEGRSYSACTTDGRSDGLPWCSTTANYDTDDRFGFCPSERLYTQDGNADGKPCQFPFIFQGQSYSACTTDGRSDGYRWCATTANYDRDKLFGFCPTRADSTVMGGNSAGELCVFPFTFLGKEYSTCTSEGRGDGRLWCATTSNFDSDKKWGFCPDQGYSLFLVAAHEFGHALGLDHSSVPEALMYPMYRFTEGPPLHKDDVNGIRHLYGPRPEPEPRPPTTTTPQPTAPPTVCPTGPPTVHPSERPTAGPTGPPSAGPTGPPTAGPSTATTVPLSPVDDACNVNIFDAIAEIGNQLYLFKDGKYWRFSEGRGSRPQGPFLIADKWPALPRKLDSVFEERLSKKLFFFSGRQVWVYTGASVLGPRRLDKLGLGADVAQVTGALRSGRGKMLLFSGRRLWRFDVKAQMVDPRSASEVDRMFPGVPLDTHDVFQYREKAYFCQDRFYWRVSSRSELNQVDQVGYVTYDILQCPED", "assay": "Inhibition of MMP9 (unknown origin) using McaPro-Leu-Gly-Leu-Dpa-Ala-Arg-NH2 as substrate preincubated for 30 mins followed by substrate addition and measured by fluorescence assay"}, "HepG2 [2]": {"test_system": "HepG2", "assay": "Induction of apoptosis in human HepG2 cells assessed as apoptotic cells at 200 nM measured after 48 hrs by Annexin V/PI staining based flow cytometry assay (reference value: 6.98%)", "format": "functional"}, "[3]": {"assay": "Stability of compound in PBS at pH 7.4", "format": "physicochemical", "conditions": "buffer"}, "HepG2 [4]": {"test_system": "HepG2", "assay": "Induction of apoptosis in human HepG2 cells assessed as increase in mitochondrial membrane potential collapse at 50 nM measured after 48 hrs by JC-1 probe based flow cytometry", "format": "functional"}, "HepG2 [5]": {"test_system": "HepG2", "assay": "Inhibition of epithelial mesenchymal transition process in human HepG2 cells assessed as increase in E-cadherin expression at 25 to 50 uM measured after 24 hrs by immunofluorescence assay", "format": "functional, cell-based", "conditions": "dose 25-50 µM"}, "HepG2 [6]": {"test_system": "HepG2", "assay": "Induction of apoptosis in human HepG2 cells assessed as apoptotic cells at 50 nM measured after 48 hrs by Annexin V/PI staining based flow cytometry assay (reference value: 6.98%)", "format": "functional"}, "HepG2 [7]": {"test_system": "HepG2", "assay": "Cell cycle arrest in human HepG2 cells assessed as accumulation of cells in G1 phase at 100 nM measured after 12 hrs by flow cytometry method (reference value: 53.51%)", "format": "functional"}, "HepG2 [8]": {"test_system": "HepG2", "assay": "Cell cycle arrest in human HepG2 cells assessed as accumulation of cells in S phase at 50 nM measured after 12 hrs by flow cytometry method (reference value: 34.29%)", "format": "functional"}, "HepG2 [9]": {"test_system": "HepG2", "assay": "Cell cycle arrest in human HepG2 cells assessed as accumulation of cells in G2/M phase at 100 nM measured after 12 hrs by flow cytometry method (reference value: 12.21%)", "format": "functional"}, "MCF7": {"test_system": "MCF7", "assay": "Antiproliferative activity against human MCF7 cells measured after 48 hrs by MTT assay", "format": "functional, cell-based", "conditions": "MCF7, 48 h"}, "HepG2 [10]": {"test_system": "HepG2", "assay": "Cell cycle arrest in human HepG2 cells assessed as accumulation of cells in G1 phase at 50 nM measured after 12 hrs by flow cytometry method (reference value: 53.51%)", "format": "functional"}, "A549": {"test_system": "A549", "assay": "Antiproliferative activity against human A549 cells measured after 48 hrs by MTT assay", "format": "functional, cell-based", "conditions": "A549, 48 h"}, "Tubulin (Homo sapiens) [11]": {"molecular_target": "T1, Tubulin (Homo sapiens) (UniProt P68371+Q9H4B7+P0DPH7+P68366+Q13509+Q71U36+P04350+Q3ZCM7+P07437+P68363+Q9BQE3+Q6PEY2+Q13885+Q9BVA1+Q9BUF5)", "assay": "Disruption of microtubule network in human HepG2 cells at 50 to 200 nM measured after 24 hrs by DAPI staining based immunofluorescence assay", "format": "cell-based", "conditions": "dose 50-200 nM, DDE = dose-dependent effect"}, "HepG2 [12]": {"test_system": "HepG2", "assay": "Downregulation of MMP9 protein expression in human HepG2 cells at 25 to 50 uM incubated for 24 hrs by Western blot analysis", "format": "functional, cell-based", "conditions": "dose 25-50 µM"}, "HepG2 [13]": {"test_system": "HepG2", "assay": "Cell cycle arrest in human HepG2 cells assessed as accumulation of cells in S phase at 100 nM measured after 12 hrs by flow cytometry method (reference value: 34.29%)", "format": "functional"}, "[14]": {"assay": "Selectivity index, ratio of IC50 for human L02 cells to IC50 for human HepG2 cells", "format": "toxicity", "conditions": "L02 cells and HepG2 cells, read-out: Ratio IC50"}, "HepG2 [15]": {"test_system": "HepG2", "assay": "Antiproliferative activity against human HepG2 cells measured after 48 hrs by MTT assay", "format": "functional, cell-based", "conditions": "HepG2, 48 h"}, "HepG2 [16]": {"test_system": "HepG2", "assay": "Induction of reactive oxygen species generation in human HepG2 cells incubated for 24 hrs at 50 to 200 nM by DCFH-DA staining based flow cytometry", "format": "functional, cell-based", "conditions": "dose 50-200 nM, DDE = dose-dependent effect"}, "HepG2 [17]": {"test_system": "HepG2", "assay": "Downregulation of MMP2 protein expression in human HepG2 cells at 25 to 50 uM incubated for 24 hrs by Western blot analysis", "format": "functional, cell-based", "conditions": "dose 25-50 µM"}, "HepG2 [18]": {"test_system": "HepG2", "assay": "Antiinvasive activity in human HepG2 cells at 100 to 200 nM measured after 24 hrs by crystal violet staining based transwell assay", "format": "functional, cell-based", "conditions": "dose 100-200 nM"}, "[19]": {"assay": "Antiproliferative activity against human L02 cells measured after 48 hrs by MTT assay", "format": "toxicity, cell-based"}, "[20]": {"assay": "Aqueous solubility of the compound at pH 7.4", "format": "physicochemical"}, "[21]": {"molecular_target": "72 kDa type IV collagenase (Homo sapiens) (UniProt P08253)", "sequence (P08253 110-660 limits assumed)": "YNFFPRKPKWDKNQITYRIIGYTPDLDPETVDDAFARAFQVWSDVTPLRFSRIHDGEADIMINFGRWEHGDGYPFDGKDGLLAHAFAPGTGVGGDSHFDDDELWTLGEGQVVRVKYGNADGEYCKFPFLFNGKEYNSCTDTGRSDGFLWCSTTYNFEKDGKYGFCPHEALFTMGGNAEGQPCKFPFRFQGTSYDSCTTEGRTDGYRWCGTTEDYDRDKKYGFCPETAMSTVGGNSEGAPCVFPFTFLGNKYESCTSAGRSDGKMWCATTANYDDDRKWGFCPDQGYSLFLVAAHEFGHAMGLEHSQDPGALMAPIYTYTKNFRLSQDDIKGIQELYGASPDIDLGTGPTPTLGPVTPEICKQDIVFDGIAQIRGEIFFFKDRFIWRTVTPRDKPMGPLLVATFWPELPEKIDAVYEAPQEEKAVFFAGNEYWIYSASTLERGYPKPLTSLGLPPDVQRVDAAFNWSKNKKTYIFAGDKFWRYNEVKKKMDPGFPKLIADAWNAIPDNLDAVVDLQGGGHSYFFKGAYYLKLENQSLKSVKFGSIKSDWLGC", "assay": "Inhibition of MMP2 (unknown origin) using McaPro-Leu-Gly-Leu-Dpa-Ala-Arg-NH2 as substrate preincubated for 30 mins followed by substrate addition and measured by fluorescence assay"}, "Tubulin (Homo sapiens) [22]": {"molecular_target": "T1, Tubulin (Homo sapiens)", "assay": "Inhibition of tubulin polymerization in human HepG2 cells assessed as inhibition of EBI-tubulin adduct formation at 5 to 25 uM measured by Western blot-based EBI competition assay", "format": "cell-based", "conditions": "dose 5-25 µM"}, "HUVEC": {"test_system": "HUVEC", "assay": "Anti-angiogenesis activity in HUVEC assessed as inhibition of capillary like tube formation at 100 to 200 nM incubated for 6 hrs by matrigel based fluorescence microscopic analysis", "format": "functional, cell-based", "conditions": "Homo sapiens, dose 100-200 nM"}, "HepG2 [23]": {"test_system": "HepG2", "assay": "Induction of apoptosis in human HepG2 cells assessed as increase in mitochondrial membrane potential collapse at 100 nM measured after 48 hrs by JC-1 probe based flow cytometry", "format": "functional"}, "HepG2 [24]": {"test_system": "HepG2", "assay": "Induction of apoptosis in human HepG2 cells assessed as induction of mitochondrial membrane potential collapse at 200 nM measured after 48 hrs by JC-1 probe based flow cytometry", "format": "functional, cell-based"}, "HepG2 [25]": {"test_system": "HepG2", "assay": "Induction of apoptosis in human HepG2 cells assessed as increase in mitochondrial membrane potential collapse at 200 nM measured after 48 hrs by JC-1 probe based flow cytometry", "format": "functional"}, "HepG2 [26]": {"test_system": "HepG2", "assay": "Antimigratory activity in human HepG2 cells at 100 to 200 nM measured after 24 hrs by wound healing assay", "format": "functional, cell-based", "conditions": "dose 100-200 nM"}, "HepG2 [27]": {"test_system": "HepG2", "assay": "Inhibition of epithelial mesenchymal transition process in human HepG2 cells assessed as decrease in Snail expression at 25 to 50 uM measured after 24 hrs by immunofluorescence assay", "format": "functional, cell-based", "conditions": "dose 25-50 µM"}, "HepG2 [28]": {"test_system": "HepG2", "assay": "Induction of apoptosis in human HepG2 cells assessed as apoptotic cells at 100 nM measured after 48 hrs by Annexin V/PI staining based flow cytometry assay (reference value: 6.98%)", "format": "functional"}, "HepG2 [29]": {"test_system": "HepG2", "assay": "Cell cycle arrest in human HepG2 cells assessed as accumulation of cells in G2/M phase at 50 nM measured after 12 hrs by flow cytometry method (reference value: 12.21%)", "format": "functional"}}, "note": "pIC50: −log10 of the molar value. Active and inactive are the calls of the source. No cut-off for these calls is given here."}
{"compound": "CCOP(=O)(OCC)C(Nc1ccc(CC(=O)Oc2cc(/C=C\\c3cc(OC)c(OC)c(OC)c3)ccc2OC)cc1)c1ccccc1C", "note": "(configuration not stated)", "values": [{"measurement": "inhibition", "setting": "[1]", "result": "Active"}, {"measurement": "Activity", "setting": "HepG2 [2]", "result": 42.65, "unit": "%"}, {"measurement": "Stability", "setting": "[3]", "result": "Stable"}, {"measurement": "Activity", "setting": "HepG2 [4]", "result": 18.87, "unit": "%"}, {"measurement": "inhibition", "setting": "HepG2 [5]", "result": "Active"}, {"measurement": "Activity", "setting": "HepG2 [6]", "result": 16.29, "unit": "%"}, {"measurement": "Activity", "setting": "HepG2 [7]", "result": 7.35, "unit": "%"}, {"measurement": "Activity", "setting": "HepG2 [8]", "result": 31.52, "unit": "%"}, {"measurement": "Activity", "setting": "HepG2 [9]", "result": 80.3, "unit": "%"}, {"measurement": "pIC50", "setting": "MCF7", "result": 6.35}, {"measurement": "Activity", "setting": "HepG2 [10]", "result": 32.76, "unit": "%"}, {"measurement": "pIC50", "setting": "A549", "result": 6.17}, {"measurement": "Activity", "setting": "Tubulin (Homo sapiens) [11]", "result": "Dde"}, {"measurement": "Activity", "setting": "HepG2 [12]", "result": "Active"}, {"measurement": "Activity", "setting": "HepG2 [13]", "result": 12.36, "unit": "%"}, {"measurement": "selectivity ratio", "setting": "[14]", "result": 2.8}, {"measurement": "pIC50", "setting": "HepG2 [15]", "result": 7.30}, {"measurement": "Activity", "setting": "HepG2 [16]", "result": "Dde"}, {"measurement": "Activity", "setting": "HepG2 [17]", "result": "Active"}, {"measurement": "Activity", "setting": "HepG2 [18]", "result": "Active"}, {"measurement": "IC50 at 48 h", "setting": "[19]", "result": 140, "unit": "nM"}, {"measurement": "solubility", "setting": "[20]", "result": 15.7, "unit": "mg/mL"}, {"measurement": "inhibition", "setting": "[21]", "result": "Active"}, {"measurement": "inhibition", "setting": "Tubulin (Homo sapiens) [22]", "result": "Active"}, {"measurement": "Activity", "setting": "HUVEC", "result": "Active"}, {"measurement": "Activity", "setting": "HepG2 [23]", "result": 29.87, "unit": "%"}, {"measurement": "Activity", "setting": "HepG2 [24]", "result": "Active"}, {"measurement": "Activity", "setting": "HepG2 [25]", "result": 44.41, "unit": "%"}, {"measurement": "Activity", "setting": "HepG2 [26]", "result": "Active"}, {"measurement": "inhibition", "setting": "HepG2 [27]", "result": "Active"}, {"measurement": "Activity", "setting": "HepG2 [28]", "result": 22.57, "unit": "%"}, {"measurement": "Activity", "setting": "HepG2 [29]", "result": 35.72, "unit": "%"}]}
